This is an account of results in PubChem BioAssay (NCI).

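Interpolation was linear, between the two tested concentrations surrounding the appropriate level; five concentrations were tested over 48 hours in 96-well plates. TGI denotes the concentration required for complete inhibition of growth.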 Where only a bound is given, the exact number is not on record here.

Test systems include HOP-92 NSCLC; CAKI-1 renal; HT29 colon; NCI-H23 lung; HCT-116 colon; SK-OV-3 ovarian; EKVX NSCLC; SK-MEL-28 melanoma; TK-10 renal; T-47D breast.
Experiment in all cases: growth of human tumour cells (NCI), 48 h

Regarding `Cc1cn(CCOCCOC(=O)NC(CCCNC(N)=O)C(=O)O)c(=O)[nH]c1=O` (stereo unspecified), the TGI with HOP-92 NSCLC, with CAKI-1 renal, in the assay with HT29 colon, in the assay on NCI-H23 lung, in the assay with HCT-116 colon and with SK-OV-3 ovarian was > 100 µM each time. For the same compound, the TGI in the assay on EKVX NSCLC, in the assay on SK-MEL-28 melanoma, in the assay on TK-10 renal and in the assay on T-47D breast was > 100 µM throughout.

For `CC1=CC[C@](C)(O)[C@@]2(C)CC[C@H]3C(=C(C)C)C(=O)C[C@]3(C)C[C@H]12`, the TGI in the assay on HOP-92 NSCLC, with CAKI-1 renal, in the assay on HT29 colon, with NCI-H23 lung, in the assay on HCT-116 colon and with SK-OV-3 ovarian was > 50 µM each time. Also, the TGI in the assay on EKVX NSCLC, with SK-MEL-28 melanoma, in the assay on TK-10 renal and in the assay with T-47D breast was > 50 µM throughout.

In the case of `O=C(NCCCCCCO)c1cccc2cc3ccccc3nc12`, the TGI in the assay with HOP-92 NSCLC was > 100 µM; in the assay with CAKI-1 renal, 36.1 µM; in the assay on HT29 colon, 36.6 µM; in the assay on HCT-116 colon, 33.1 µM; with SK-OV-3 ovarian it was 47.4 µM; with EKVX NSCLC it was 32.8 µM. Further, the TGI with SK-MEL-28 melanoma was 42.5 µM; in the assay on TK-10 renal, 34.6 µM; with T-47D breast it was 26 µM.

Take `COC(=O)[C@](C)(Cc1ccccc1)NC(=O)[C@@H](C)N1[C@@H](c2ccccc2)COC1(C)C`: the TGI in the assay with HOP-92 NSCLC, in the assay on CAKI-1 renal, with HT29 colon, in the assay on NCI-H23 lung, with HCT-116 colon and in the assay on SK-OV-3 ovarian was > 100 µM in each case. In addition, the TGI with EKVX NSCLC, in the assay with SK-MEL-28 melanoma, in the assay with TK-10 renal and in the assay with T-47D breast was > 100 µM in each case.

With `C=CC(OC(C)=O)c1ccc(OC(C)=O)cc1` (stereo unspecified), the TGI is 22.8 µM with HOP-92 NSCLC; 10 µM with CAKI-1 renal; 32.7 µM with HT29 colon; 37.3 µM with NCI-H23 lung; 19.4 µM with HCT-116 colon; 32.6 µM in the assay on SK-OV-3 ovarian. The TGI in the assay with EKVX NSCLC was 41.4 µM; in the assay on SK-MEL-28 melanoma, 28.6 µM; in the assay on TK-10 renal it was 4.99 µM; with T-47D breast it was 8.24 µM.

As for `COc1cc2c(cc1OC)C(=O)/C(=C/c1ccc(O)cc1)CC2`, the TGI in the assay with HOP-92 NSCLC, in the assay with CAKI-1 renal, in the assay with HT29 colon, in the assay on NCI-H23 lung, in the assay with HCT-116 colon and in the assay on SK-OV-3 ovarian was > 10 µM in each case. In addition, the TGI in the assay with EKVX NSCLC, with SK-MEL-28 melanoma, in the assay on TK-10 renal and in the assay with T-47D breast was > 10 µM in each case.

As for `COc1cc2oc(-c3ccc4c(c3)OCO4)c(OC)c(=O)c2c(O)c1OC`, the TGI in the assay with HOP-92 NSCLC, in the assay on CAKI-1 renal, with HT29 colon, in the assay on NCI-H23 lung, in the assay on HCT-116 colon and with SK-OV-3 ovarian was > 50 µM each time. In addition, the TGI in the assay on EKVX NSCLC, in the assay with SK-MEL-28 melanoma, in the assay with TK-10 renal and with T-47D breast was > 50 µM throughout.

In the case of `O=C1C(Cl)=C(c2ccc([N+](=O)[O-])cc2)C(=O)c2c(O)cccc21`, the TGI with HOP-92 NSCLC amounted to 3.15 µM; in the assay with CAKI-1 renal, 3.86 µM; with HT29 colon, 7.37 µM; in the assay with NCI-H23 lung, 4.14 µM; in the assay with HCT-116 colon, 3.55 µM; in the assay on SK-OV-3 ovarian, 8.64 µM. Also, the TGI in the assay with EKVX NSCLC came to 33.4 µM; in the assay on SK-MEL-28 melanoma, 4.16 µM; in the assay on TK-10 renal, 10.7 µM; with T-47D breast it was 5.54 µM.

In the case of `NC1c2c(Cl)sc(Cl)c2C(=O)C1O` (stereo unspecified), the TGI in the assay on HOP-92 NSCLC is 84.3 µM; in the assay on CAKI-1 renal, 47.4 µM; in the assay on HT29 colon, 33.9 µM; with NCI-H23 lung it was 32.5 µM; in the assay with HCT-116 colon, > 100 µM; with SK-OV-3 ovarian, > 100 µM. The TGI was 57.6 µM in the assay on EKVX NSCLC, > 100 µM in the assay on TK-10 renal and > 100 µM with T-47D breast.

As for `COc1ccc(NC(=O)CC(=O)N2N=C(N(c3ccccc3)c3ccccc3)CC2c2ccccc2)cc1` (stereo unspecified), the TGI with HOP-92 NSCLC, in the assay on CAKI-1 renal, in the assay with HT29 colon, in the assay with NCI-H23 lung, with HCT-116 colon and with SK-OV-3 ovarian was > 100 µM each time. The TGI in the assay with EKVX NSCLC, in the assay on SK-MEL-28 melanoma, in the assay on TK-10 renal and in the assay with T-47D breast was > 100 µM in each case.

`CCOC(=O)Cc1csc(N=Nc2c(O)[nH]c3ccccc23)n1`: the TGI in the assay on HOP-92 NSCLC, in the assay with CAKI-1 renal, in the assay with HT29 colon, in the assay on NCI-H23 lung, in the assay on HCT-116 colon and with SK-OV-3 ovarian was > 100 µM in each case. Moreover, the TGI in the assay with EKVX NSCLC, in the assay with TK-10 renal and with T-47D breast was > 100 µM each time.

`COc1cc2c(cc1O)CCN(C)[C@H]2Cc1ccc(Oc2c(O)c(OC)cc3c2C[C@H]2c4c(c(OC)c(OC)c(OC)c4-3)CCN2C)cc1`: the TGI came out at 7.17 µM with HOP-92 NSCLC; 10.9 µM in the assay with CAKI-1 renal; 7.35 µM in the assay with HT29 colon; 12.9 µM with NCI-H23 lung; 7.98 µM in the assay with HCT-116 colon; 10.5 µM in the assay with SK-OV-3 ovarian. In addition, the TGI in the assay with EKVX NSCLC turned out to be 11.3 µM; in the assay on SK-MEL-28 melanoma it was 11.7 µM; in the assay on TK-10 renal it was 11.3 µM; in the assay with T-47D breast it was 12.2 µM.

In the case of `Cc1ccc(/C=C2/NC(=S)SC2=O)cc1`, the TGI in the assay with HOP-92 NSCLC is > 100 µM; in the assay on CAKI-1 renal, 51.1 µM; with HT29 colon, > 100 µM; with NCI-H23 lung it was 64.8 µM; with HCT-116 colon it was > 100 µM; in the assay with SK-OV-3 ovarian, > 100 µM. Besides, the TGI in the assay with EKVX NSCLC was > 100 µM; in the assay with SK-MEL-28 melanoma, > 100 µM; in the assay with TK-10 renal, 53.9 µM; with T-47D breast, > 100 µM.

Turning to `COc1cc(CNC(=S)CCCCCCCCCCC(C)C)ccc1O`, the TGI is 68 µM in the assay with HOP-92 NSCLC; > 100 µM in the assay with HT29 colon; > 100 µM in the assay with NCI-H23 lung; > 100 µM in the assay with HCT-116 colon; > 100 µM in the assay with SK-OV-3 ovarian; > 100 µM in the assay with EKVX NSCLC. Also, the TGI is > 100 µM with SK-MEL-28 melanoma, > 100 µM in the assay with TK-10 renal and 97.5 µM in the assay with T-47D breast.
